What was measured:
Assay type in all cases: cell-based
[1] = target: T1, human prostanoid FP receptor (Homo sapiens, UniProt P43088); test: FLIPR Ca2+ signaling antagonist assay, FP receptor stable cell line; conditions: human recombinant FP in HEK-293 EBNA cells; standard agonist 17-phenyl-PGF2a; NA = no antagonism or Kb>=10,000 nM
T1 construct: expressed in transfected cells
Description: (§1) The above compounds were tested for PG antagonist activity as follows using human recombinant prostanoid receptor (DP1, EP1-4, FP, IP and TP) stable cell lines:
(§2) In order to measure the response of Gs and Gi coupled prostanoid receptors as a Ca^2+ signal, chimeric G protein cDNAs were used. Stable cell lines over-expressing human prostanoid DP1, EP1-4, FP, IP, and TP receptors were established as follows:
(§3) Briefly, human prostanoid DP1, EP2, and EP4 receptor cDNAs were co-transfected with chimeric Gqs cDNA containing a haemagglutanin (HA) epitope; human prostanoid EP3 receptors were co-transfected with chimeric Gqi-HA; human EP1, FP, IP, and TP receptor cDNAs were expressed with no exogenous G-proteins. Gqs and Gqi chimeric cDNAs (Molecular Devices, Sunnyvale, Calif., U.S.A.), as well as cDNAs of prostanoid receptors, were cloned into a pCEP4 vector with a hygromycin B selection marker. Transfection into HEK-293 EBNA (Epstein-Barr virus nuclear antigen) cells was achieved by the FuGENE 6 transfection Reagent (Roche Applied Science, Indianapolis, Ind., USA). Stable transfectants were selected according to hygromycin resistance. Because Gqs and Gqi contained an HA epitope, G-protein expression was detected by Western blotting analysis using anti-mouse HA monoclonal antibody and horseradish peroxidase (HRP)-conjugated secondary antibody, while functional expression of prostanoid receptors was detected by FLIPR screening (Matias et al., 2004). These stable cell lines were validated using previously published antagonists at 10 μM against serial dilutions of standard agonists by FLIPR functional assays for Ca^2+ Signaling (as described below).
(§4) Ca^2+ signaling studies were performed using a FLIPR TETRA system (Molecular Devices, Sunnyvale, Calif., USA) in the 384-format. This is a high-throughput instrument for cell-based assays to monitor Ca^2+ signaling associated with GPCRs and ion channels. Cells were seeded at a density of 5×10^4 cells/well in BioCoat poly-D-lysine coated, black wall, clear bottom 384-well plates (BD Biosciences, Franklin lakes, NJ, USA) and allowed to attach overnight in an incubator at 37° C. The cells were then washed twice with HBSS-HEPES buffer (Hanks' balanced salt solution without bicarbonate and phenol red, 20 mM HEPES, pH 7.4) using an ELx405 Select CW Microplate Washer (BioTek, Winooski, Vt., USA). After 60 min of dye-loading in the dark using the Ca^2+-sensitive dye Fluo-4AM (Invitrogen, Carlsbad, Calif., USA), at a final concentration of 2×10^−6M, the plates were washed 4 times with HBSS-HEPES buffer to remove excess dye and leaving 50 μl of buffer in each well. The plates were then placed in the FLIPR TETRA instrument and allowed to equilibrate at 37° C. AGN-211377 was added in a 25 μl volume to each well to give final concentrations of 0.1 μl. M, 0.4M, 1 μM, 3 μl. M, 10 μl. M, and 30 μl. M; or 0.067 μM, 0.4M, 0.67 μM, and 1 μM for cells over-expressing TP receptors. After 4.5 minutes, a 7-point serial dilution of the standard agonist for the corresponding receptor, in a 25 μl volume was injected at the final concentrations from 10^−11M to 10^−5M in 10-fold serial dilution increments for cells expressing human recombinant DP1, EP1, EP2, EP3, EP4, FP, and IP receptors. The dose range for the standard agonist for human recombinant TP receptors was from 10^−12M to 10^−6M. HBSS-HEPES buffer was used as the negative control for the standard agonists. Cells were excited with LED (light emitting diode) excitation at 470-495 nm and emission was measured through an emission filter at 515-575 nm. Assay plates were read for 3.5 minutes using the FLIPR^TETRA. The peak increase in fluorescence intensity was recorded for each well. On each plate, negative controls, dose response of positive controls, and co-treatments of antagonist-agonist for each dose were in triplicates. Standard agonists were as follows: DP=BW 245C, EP1-EP4=PGE2, FP=17-phenyl-PGF2a, IP=Cicaprost, and TP=U-46619. […]

[2] = target: T2, human prostanoid IP receptor (Homo sapiens, UniProt P43119); test: FLIPR Ca2+ signaling antagonist assay, IP receptor stable cell line; set-up: key to FLIPR data IP (Kb): PAg = partial agonist; Ag = agonist; NA = not active; conditions: human recombinant IP in HEK-293 EBNA cells; standard agonist Cicaprost; NA = no antagonism or Kb>=10,000 nM
T2 construct: expressed in transfected cells
T2 sequence (P43119 whole entry): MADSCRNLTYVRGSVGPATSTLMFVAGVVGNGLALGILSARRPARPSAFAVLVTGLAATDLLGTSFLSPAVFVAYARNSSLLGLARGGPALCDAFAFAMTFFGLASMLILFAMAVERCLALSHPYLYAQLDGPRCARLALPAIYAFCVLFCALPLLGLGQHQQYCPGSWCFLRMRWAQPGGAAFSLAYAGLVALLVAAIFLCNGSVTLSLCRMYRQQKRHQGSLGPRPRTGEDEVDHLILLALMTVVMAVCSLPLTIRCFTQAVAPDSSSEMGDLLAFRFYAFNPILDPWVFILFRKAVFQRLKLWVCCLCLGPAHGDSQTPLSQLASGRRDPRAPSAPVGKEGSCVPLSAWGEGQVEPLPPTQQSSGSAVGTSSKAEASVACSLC
Description: as §1, §2, §3, §4

[3] = target: T3, human prostanoid TP receptor (Homo sapiens, UniProt P21731); test: FLIPR Ca2+ signaling antagonist assay, TP receptor stable cell line; set-up: key to FLIPR data TP (Kb): PAg = partial agonist; Ag = agonist; NA = not active; conditions: human recombinant TP in HEK-293 EBNA cells; standard agonist U-46619; NA = no antagonism or Kb>=10,000 nM
T3 construct: expressed in transfected cells
T3 sequence (P21731 1-343): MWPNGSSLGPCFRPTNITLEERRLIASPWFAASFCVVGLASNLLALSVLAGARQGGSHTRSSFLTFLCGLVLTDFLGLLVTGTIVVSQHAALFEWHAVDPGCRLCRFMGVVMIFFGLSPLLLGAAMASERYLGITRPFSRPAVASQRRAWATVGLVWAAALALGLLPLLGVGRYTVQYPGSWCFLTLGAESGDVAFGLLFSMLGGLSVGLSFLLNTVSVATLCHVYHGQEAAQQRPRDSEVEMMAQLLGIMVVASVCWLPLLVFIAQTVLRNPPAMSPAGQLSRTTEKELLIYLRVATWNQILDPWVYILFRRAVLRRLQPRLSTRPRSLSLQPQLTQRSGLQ
Description: as §1, §2, §3, §4

[4] = target: T4, human prostanoid DP1 receptor (Homo sapiens, UniProt Q13258); test: FLIPR Ca2+ signaling antagonist assay, DP1 receptor stable cell line; conditions: human recombinant DP1 + chimeric Gqs in HEK-293 EBNA cells; standard agonist BW 245C; NA = no antagonism or Kb>=10,000 nM
T4 construct: expressed in transfected cells
T4 sequence (Q13258 1-359): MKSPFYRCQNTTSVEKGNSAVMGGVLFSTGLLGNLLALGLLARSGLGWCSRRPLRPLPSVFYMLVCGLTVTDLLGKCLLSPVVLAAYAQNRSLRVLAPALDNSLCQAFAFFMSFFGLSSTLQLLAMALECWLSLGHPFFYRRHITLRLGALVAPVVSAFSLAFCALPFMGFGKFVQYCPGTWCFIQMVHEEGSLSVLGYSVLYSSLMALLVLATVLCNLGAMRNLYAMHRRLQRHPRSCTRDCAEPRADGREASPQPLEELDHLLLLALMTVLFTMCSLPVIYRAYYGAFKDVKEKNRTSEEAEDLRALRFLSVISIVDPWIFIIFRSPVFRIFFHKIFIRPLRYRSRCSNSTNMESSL
Description: as §1, §2, §3, §4

T1 sequence (P43088 whole entry): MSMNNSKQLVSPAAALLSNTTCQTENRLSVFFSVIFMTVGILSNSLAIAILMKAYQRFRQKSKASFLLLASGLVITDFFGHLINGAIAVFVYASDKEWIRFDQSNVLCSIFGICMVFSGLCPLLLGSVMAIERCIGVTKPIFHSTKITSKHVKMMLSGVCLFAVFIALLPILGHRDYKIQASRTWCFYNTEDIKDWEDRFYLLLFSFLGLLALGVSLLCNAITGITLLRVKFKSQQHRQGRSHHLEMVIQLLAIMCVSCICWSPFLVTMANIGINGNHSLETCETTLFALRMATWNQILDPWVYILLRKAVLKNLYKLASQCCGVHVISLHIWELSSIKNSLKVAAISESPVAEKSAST

| Kb [1] [nM] | Kb [2] [nM] | Kb [3] [nM] | Kb [4] [nM] | FLIPR data IP (Kb) [2] | FLIPR data TP (Kb) [3] | Compound |
| --- | --- | --- | --- | --- | --- | --- |
| 500 | > 10000 | 740 | 5500 | – | – | CCCn1ncc2cc(Cl)cc(Cn3ncc4cc(C(=O)O)ccc43)c21 [Compound 48] |
| 80 | – | – | 300 | Ag | Ag | CC(C)Cn1ncc2cc(OC(F)(F)F)cc(Cn3ncc4cc(C(=O)O)ccc43)c21 [Compound 45, 1-(1-Isobutyl-5-trifluoromethoxy-1H-indazol-7-ylmethyl)-1H-indazole-5-carboxylic acid] |

Reference: patent US9657018B2, “Antagonists acting at multiple prostaglandin receptors for the treatment of inflammation” (Allergan, Inc., priority 2014, dated 2017)
